Laboratory results as given in PubChem BioAssay (NCI).
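Interpolation was linear, between the two tested concentrations surrounding the appropriate level; five concentrations were tested over 48 hours in 96-well plates. TGI: concentration producing complete growth inhibition.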

Assays:
Experiment in all cases: growth of human tumour cells (NCI), 48 h
786-0 renal = test system: 786-0 renal
A498 renal = test system: A498 renal
A549 NSCLC = test system: A549 NSCLC
ACHN renal = test system: ACHN renal
BT-549 breast = test system: BT-549 breast
CAKI-1 renal = test system: CAKI-1 renal
CCRF-CEM leukemia = test system: CCRF-CEM leukemia
COLO 205 colon = test system: COLO 205 colon
DU-145 prostate = test system: DU-145 prostate
EKVX NSCLC = test system: EKVX NSCLC
HCC-2998 colon = test system: HCC-2998 colon
HCT-116 colon = test system: HCT-116 colon
HCT-15 colon = test system: HCT-15 colon
HL-60(TB) leukemia = test system: HL-60(TB) leukemia
HOP-62 NSCLC = test system: HOP-62 NSCLC
HOP-92 NSCLC = test system: HOP-92 NSCLC
HS 578T breast = test system: HS 578T breast
HT29 colon = test system: HT29 colon
IGROV1 ovarian = test system: IGROV1 ovarian
K-562 leukemia = test system: K-562 leukemia
KM12 colon = test system: KM12 colon
LOX IMVI melanoma = test system: LOX IMVI melanoma
M14 melanoma = test system: M14 melanoma
MCF7 breast = test system: MCF7 breast
MDA-MB-231 breast = test system: MDA-MB-231 breast
MDA-MB-435 = test system: MDA-MB-435
MDA-N = test system: MDA-N
MOLT-4 leukemia = test system: MOLT-4 leukemia
NCI-H226 lung = test system: NCI-H226 lung
NCI-H23 lung = test system: NCI-H23 lung
NCI-H460 lung = test system: NCI-H460 lung
NCI/ADR-RES ovarian = test system: NCI/ADR-RES ovarian
OVCAR-3 ovarian = test system: OVCAR-3 ovarian
OVCAR-4 ovarian = test system: OVCAR-4 ovarian
OVCAR-5 ovarian = test system: OVCAR-5 ovarian
OVCAR-8 ovarian = test system: OVCAR-8 ovarian
PC-3 prostate = test system: PC-3 prostate
RPMI-8226 leukemia = test system: RPMI-8226 leukemia
RXF 393 renal = test system: RXF 393 renal
SF-268 CNS = test system: SF-268 CNS
SF-295 CNS = test system: SF-295 CNS
SF-539 CNS = test system: SF-539 CNS
SK-MEL-2 melanoma = test system: SK-MEL-2 melanoma
SK-MEL-28 melanoma = test system: SK-MEL-28 melanoma
SK-MEL-5 melanoma = test system: SK-MEL-5 melanoma
SK-OV-3 ovarian = test system: SK-OV-3 ovarian
SN12C renal = test system: SN12C renal
SNB-19 CNS = test system: SNB-19 CNS
SNB-75 CNS = test system: SNB-75 CNS
SR leukemia = test system: SR leukemia
SW-620 colon = test system: SW-620 colon
T-47D breast = test system: T-47D breast
TK-10 renal = test system: TK-10 renal
U251 CNS = test system: U251 CNS
UACC-257 melanoma = test system: UACC-257 melanoma
UACC-62 melanoma = test system: UACC-62 melanoma
UO-31 renal = test system: UO-31 renal
MALME-3M melanoma = test system: MALME-3M melanoma

Cn1c(-c2ccccc2)cc(-c2ccsc2)c1-c1ccsc1
TGI (786-0 renal): > 100 µM
TGI (A498 renal): > 100 µM
TGI (A549 NSCLC): > 100 µM
TGI (ACHN renal): > 100 µM
TGI (BT-549 breast): > 100 µM
TGI (CAKI-1 renal): > 100 µM
TGI (CCRF-CEM leukemia): > 100 µM
TGI (COLO 205 colon): > 100 µM
TGI (DU-145 prostate): > 100 µM
TGI (EKVX NSCLC): > 100 µM
TGI (HCC-2998 colon): > 100 µM
TGI (HCT-116 colon): > 100 µM
TGI (HCT-15 colon): > 100 µM
TGI (HL-60(TB) leukemia): > 100 µM
TGI (HOP-62 NSCLC): > 100 µM
TGI (HOP-92 NSCLC): > 100 µM
TGI (HS 578T breast): > 100 µM
TGI (HT29 colon): > 100 µM
TGI (IGROV1 ovarian): > 100 µM
TGI (K-562 leukemia): > 100 µM
TGI (KM12 colon): > 100 µM
TGI (LOX IMVI melanoma): > 100 µM
TGI (M14 melanoma): > 100 µM
TGI (MCF7 breast): > 100 µM
TGI (MDA-MB-231 breast): > 100 µM
TGI (MDA-MB-435): > 100 µM
TGI (MDA-N): > 100 µM
TGI (MOLT-4 leukemia): > 100 µM
TGI (NCI-H226 lung): > 100 µM
TGI (NCI-H23 lung): > 100 µM
TGI (NCI-H460 lung): > 100 µM
TGI (NCI/ADR-RES ovarian): > 100 µM
TGI (OVCAR-3 ovarian): > 100 µM
TGI (OVCAR-4 ovarian): > 100 µM
TGI (OVCAR-5 ovarian): > 100 µM
TGI (OVCAR-8 ovarian): > 100 µM
TGI (PC-3 prostate): > 100 µM
TGI (RPMI-8226 leukemia): > 100 µM
TGI (RXF 393 renal): > 100 µM
TGI (SF-268 CNS): > 100 µM
TGI (SF-295 CNS): > 100 µM
TGI (SF-539 CNS): > 100 µM
TGI (SK-MEL-2 melanoma): > 100 µM
TGI (SK-MEL-28 melanoma): > 100 µM
TGI (SK-MEL-5 melanoma): > 100 µM
TGI (SK-OV-3 ovarian): > 100 µM
TGI (SN12C renal): > 100 µM
TGI (SNB-19 CNS): > 100 µM
TGI (SNB-75 CNS): > 100 µM
TGI (SR leukemia): > 100 µM
TGI (SW-620 colon): > 100 µM
TGI (T-47D breast): > 100 µM
TGI (TK-10 renal): > 100 µM
TGI (U251 CNS): > 100 µM
TGI (UACC-257 melanoma): > 100 µM
TGI (UACC-62 melanoma): > 100 µM
TGI (UO-31 renal): > 100 µM

O=c1c(Cc2c(O)ccc3ccccc23)nnc2sc(-c3nn4c(=O)c(Cc5c(O)ccc6ccccc56)nnc4s3)nn12
TGI (786-0 renal): > 100 µM
TGI (A498 renal): > 100 µM
TGI (A549 NSCLC): > 100 µM
TGI (ACHN renal): > 100 µM
TGI (BT-549 breast): > 100 µM
TGI (CAKI-1 renal): > 100 µM
TGI (CCRF-CEM leukemia): 96.3 µM
TGI (DU-145 prostate): > 100 µM
TGI (EKVX NSCLC): > 100 µM
TGI (HCC-2998 colon): > 100 µM
TGI (HCT-116 colon): > 100 µM
TGI (HCT-15 colon): > 100 µM
TGI (HL-60(TB) leukemia): > 100 µM
TGI (HOP-62 NSCLC): > 100 µM
TGI (HOP-92 NSCLC): > 100 µM
TGI (HS 578T breast): > 100 µM
TGI (HT29 colon): > 100 µM
TGI (IGROV1 ovarian): > 100 µM
TGI (K-562 leukemia): > 100 µM
TGI (LOX IMVI melanoma): > 100 µM
TGI (M14 melanoma): > 100 µM
TGI (MALME-3M melanoma): > 100 µM
TGI (MCF7 breast): > 100 µM
TGI (MDA-MB-231 breast): > 100 µM
TGI (MDA-MB-435): > 100 µM
TGI (MDA-N): > 100 µM
TGI (NCI-H23 lung): > 100 µM
TGI (NCI/ADR-RES ovarian): > 100 µM
TGI (OVCAR-3 ovarian): > 100 µM
TGI (OVCAR-4 ovarian): > 100 µM
TGI (OVCAR-5 ovarian): > 100 µM
TGI (OVCAR-8 ovarian): > 100 µM
TGI (PC-3 prostate): > 100 µM
TGI (RPMI-8226 leukemia): > 100 µM
TGI (RXF 393 renal): 84.4 µM
TGI (SF-268 CNS): > 100 µM
TGI (SK-MEL-2 melanoma): 40.3 µM
TGI (SN12C renal): > 100 µM
TGI (SNB-19 CNS): > 100 µM
TGI (SNB-75 CNS): 39.9 µM
TGI (SR leukemia): > 100 µM
TGI (SW-620 colon): > 100 µM
TGI (T-47D breast): > 100 µM
TGI (TK-10 renal): > 100 µM
TGI (U251 CNS): > 100 µM
TGI (UACC-257 melanoma): > 100 µM
TGI (UACC-62 melanoma): > 100 µM
TGI (UO-31 renal): > 100 µM

Cc1[nH]c(=O)[nH]c(=S)c1C(=O)NC1C2CCCCC2NC2CCCCC21 (stereo unspecified)
TGI (A498 renal): 41.2 µM
TGI (BT-549 breast): 32.8 µM
TGI (CAKI-1 renal): 33.7 µM
TGI (CCRF-CEM leukemia): 36.2 µM
TGI (COLO 205 colon): 39.5 µM
TGI (DU-145 prostate): 26.6 µM
TGI (HCC-2998 colon): 84.6 µM
TGI (HCT-116 colon): 31 µM
TGI (HCT-15 colon): 25.9 µM
TGI (HL-60(TB) leukemia): > 100 µM
TGI (HOP-62 NSCLC): 32.9 µM
TGI (HOP-92 NSCLC): 33.6 µM
TGI (HS 578T breast): 61.8 µM
TGI (HT29 colon): 48 µM
TGI (IGROV1 ovarian): 33.2 µM
TGI (K-562 leukemia): > 100 µM
TGI (KM12 colon): 34.4 µM
TGI (LOX IMVI melanoma): 64 µM
TGI (M14 melanoma): 29.6 µM
TGI (MALME-3M melanoma): 46.8 µM
TGI (MCF7 breast): 37.2 µM
TGI (MDA-MB-231 breast): 33.1 µM
TGI (MDA-MB-435): 20.7 µM
TGI (MDA-N): 34.9 µM
TGI (MOLT-4 leukemia): 43.9 µM
TGI (NCI-H226 lung): 33.2 µM
TGI (NCI-H23 lung): 29.8 µM
TGI (NCI-H460 lung): 31.6 µM
TGI (NCI/ADR-RES ovarian): 40.2 µM
TGI (OVCAR-3 ovarian): 29.5 µM
TGI (OVCAR-4 ovarian): 50.7 µM
TGI (OVCAR-5 ovarian): 34.1 µM
TGI (OVCAR-8 ovarian): 36.2 µM
TGI (PC-3 prostate): 29.4 µM
TGI (RPMI-8226 leukemia): > 100 µM
TGI (RXF 393 renal): 27.6 µM
TGI (SF-295 CNS): 32.8 µM
TGI (SK-MEL-2 melanoma): 36.6 µM
TGI (SK-MEL-28 melanoma): 23.8 µM
TGI (SK-MEL-5 melanoma): 33.3 µM
TGI (SN12C renal): 58 µM
TGI (SNB-19 CNS): 29.7 µM
TGI (SNB-75 CNS): 32.3 µM
TGI (SR leukemia): > 100 µM
TGI (SW-620 colon): 40.2 µM
TGI (T-47D breast): 43.8 µM
TGI (TK-10 renal): 30.6 µM
TGI (U251 CNS): 27.1 µM
TGI (UACC-257 melanoma): 33.5 µM
TGI (UACC-62 melanoma): 16.3 µM
TGI (UO-31 renal): 26.7 µM
